# System: SKOV-3 cells
# Assay: Cell proliferation assay, ASO transfection and/or drug (cell counting)
# Type: cell-based, human
# Conditions: FIG. 49
# Experimental: FIG. 24 illustrates that BRCA2 inhibition sensitizes ovarian cancer and breast cancer cell lines to olaparib treatment. SKOV-3 (A) and CaOV3 (B) cells were transfected with control ASO (•) or BRCA2 ASO (∘) and then treated with three different concentrations of olaparib. Proliferation was determined by cell counting 96 hours post-transfection (*p<0.05). C: BRCA2 mRNA levels were measured by qPCR 24 hours following BRCA2 ASO transfection in SKOV-3, CaOV3, 211 H and H2052 cell lines.
# E: SKOV-3 cells were transfected with control or BRCA2 ASO and then treated with olaparib 24 hours post transfection. Ninety-six hours post transfection, cells were counted, plated, and re-transfected with control ASO or BRCA2 ASO and re-treated with olaparib. Cell counts were performed 96 hours post transfection (*p<0.05). […]
# A: BRCA2-wild type SKOV-3 cells (black bars), […] MCF-7 cells (white bars), and BRCA2-mutated CAPAN-1 cells (grey bars) were treated simultaneously but separately with BRCA2 ASO (20 nM). […] Ninety-six hours post-transfection, cells were counted and proliferation determined (% of proliferation after control ASO treatment).
# C: SKOV-3, MCF-7 and CAPAN-1 cells were treated with two different concentrations of olaparib for 96 hours. After drug treatment they were counted and proliferation was determined as a percent of that of vehicle-treated cells. […]
substance,measurement,value
"5′-guaucuCTTGACGTuccuua-3′ (GUAUCUCTTGACGTUCCUUA; gapmer, lower-case wings modified, type not given here) [BR1]",effect on antiproliferative activity of cisplatin,enhances the antiproliferative activity of cisplatin

# From patent US10907159B2, “Methods of treating cancer by inhibition of DNA repair proteins using antisense based therapies” (SARISSA INC., priority 2015, dated 2021)
